# Patent US6962930B1, “Compounds, compositions and method suitable for amelioration of withdrawal syndromes and withdrawal-induced brain damage” (Lohocla Research Corporation, priority 1997, dated 2005)
# What was measured:
# [1] = target: α2-noradrenergic receptors; assay: [3H]rauwolscine binding, rat cortex crude membranes; settings: crude P1 membranes
# Experimental: Rat cortices were homogenized in 20 volumes of ice-cold HEPES-KOH buffer (20 mM, pH 7.4) and twice centrifuged at 50,000 g for 20 min with an intermediate suspension in fresh buffer. The final pellet was stored at −20° C. in 4 volumes of buffer. The binding of [^3H]rauwolscine was performed in a 0.5 ml volume using 250–300 μg tissue and 1 nM [^3H]rauwolscine in 20 mM HEPES-KOH buffer (pH 7.4 at 23° C.). Non-specific binding was defined by use of 100 μM norepinephrine.
# [2] = target: benzodiazepine binding site on the GABAA receptor; assay: [3H]flunitrazepam binding, rat cortical membranes; settings: 5–200 μM DCUKA tested
# Experimental: SITES IN CEREBRUM OF F-344 RATS: EFFECTS OF EXERCISE,” Neurobiol. […] Non-specific binding was defined by 10 μM diazepam.
# [3] = target: T1, RSM (μl) sodium channels (Rattus norvegicus, UniProt P15390); assay: Sodium currents, whole cell patch clamp in CHO cells; format: cell-based; settings: held at −100 mV, successive depolarizations
# T1 construct: expressed in transfected cells
# T1 sequence (P15390 whole entry): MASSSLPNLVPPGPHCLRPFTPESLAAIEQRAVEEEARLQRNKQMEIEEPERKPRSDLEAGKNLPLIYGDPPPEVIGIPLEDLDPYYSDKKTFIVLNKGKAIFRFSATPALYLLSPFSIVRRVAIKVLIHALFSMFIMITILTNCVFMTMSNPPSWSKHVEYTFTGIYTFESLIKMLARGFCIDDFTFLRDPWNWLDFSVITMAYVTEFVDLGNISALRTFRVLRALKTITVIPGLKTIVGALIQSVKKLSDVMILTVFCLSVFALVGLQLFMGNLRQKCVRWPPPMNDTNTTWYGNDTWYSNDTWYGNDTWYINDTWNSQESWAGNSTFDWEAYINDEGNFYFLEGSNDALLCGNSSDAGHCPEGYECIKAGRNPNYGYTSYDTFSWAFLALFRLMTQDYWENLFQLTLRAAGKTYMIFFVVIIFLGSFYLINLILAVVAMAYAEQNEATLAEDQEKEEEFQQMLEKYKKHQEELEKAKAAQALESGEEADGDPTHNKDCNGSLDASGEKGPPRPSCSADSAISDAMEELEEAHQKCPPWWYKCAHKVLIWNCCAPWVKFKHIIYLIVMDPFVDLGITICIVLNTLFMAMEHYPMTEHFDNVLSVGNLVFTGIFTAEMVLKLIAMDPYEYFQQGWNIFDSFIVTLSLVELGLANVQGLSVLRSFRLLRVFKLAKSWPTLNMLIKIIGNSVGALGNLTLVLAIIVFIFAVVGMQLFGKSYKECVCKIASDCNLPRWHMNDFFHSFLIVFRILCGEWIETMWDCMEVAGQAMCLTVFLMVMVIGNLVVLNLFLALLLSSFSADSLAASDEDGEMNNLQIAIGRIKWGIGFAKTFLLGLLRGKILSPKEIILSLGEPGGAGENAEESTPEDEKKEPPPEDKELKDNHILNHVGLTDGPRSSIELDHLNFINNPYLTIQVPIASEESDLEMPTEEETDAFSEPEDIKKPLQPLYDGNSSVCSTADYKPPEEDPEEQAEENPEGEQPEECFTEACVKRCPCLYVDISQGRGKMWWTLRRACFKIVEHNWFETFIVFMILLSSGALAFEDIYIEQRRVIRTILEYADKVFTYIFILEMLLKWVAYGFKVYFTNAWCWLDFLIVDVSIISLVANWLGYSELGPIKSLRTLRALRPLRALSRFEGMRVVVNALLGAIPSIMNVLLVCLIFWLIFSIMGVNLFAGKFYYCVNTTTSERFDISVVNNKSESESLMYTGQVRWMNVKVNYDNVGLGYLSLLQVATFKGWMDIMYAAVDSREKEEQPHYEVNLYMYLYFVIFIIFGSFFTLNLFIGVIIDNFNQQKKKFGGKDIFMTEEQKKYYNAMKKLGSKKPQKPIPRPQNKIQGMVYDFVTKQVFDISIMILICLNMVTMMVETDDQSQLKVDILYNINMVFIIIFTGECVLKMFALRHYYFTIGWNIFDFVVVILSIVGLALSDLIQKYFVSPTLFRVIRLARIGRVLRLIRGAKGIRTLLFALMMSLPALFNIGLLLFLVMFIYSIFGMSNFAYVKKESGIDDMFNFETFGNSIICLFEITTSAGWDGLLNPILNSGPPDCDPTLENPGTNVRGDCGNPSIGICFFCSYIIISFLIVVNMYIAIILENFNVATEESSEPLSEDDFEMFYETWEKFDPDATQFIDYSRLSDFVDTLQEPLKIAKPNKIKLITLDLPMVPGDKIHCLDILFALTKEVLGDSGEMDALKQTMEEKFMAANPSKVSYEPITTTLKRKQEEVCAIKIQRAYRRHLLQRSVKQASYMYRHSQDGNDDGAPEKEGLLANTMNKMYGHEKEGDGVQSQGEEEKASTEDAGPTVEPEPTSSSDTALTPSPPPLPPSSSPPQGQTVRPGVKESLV
# Experimental: Chinese hamster ovary (CHO) cells stably expressing RSM (μl) sodium channels were studied using the patch clamp whole cell recording technique. CHO cells were grown to confluence in Dulbecco's Modified Eagle's Medium fortified with 15% FBS, 100 U/ml penicillin and 100 μg/ml streptomycin in a humidified incubator at 37° C. and 5% CO2, with medium changed every 2–3 days. Transfections with the plasmid pZemμ1–2 were performed using the calcium phosphate coprecipitation method. After 24 hr of incubation with DNA, standard culturing conditions were resumed. After 3 days, stably transfected cells were selected with 400 μg/ml geneticin. Transfected cells were grown to confluence and then plated on 35 mm culture dishes for 24–96 hr before the experiment.
# An 8900 Dagan patch clamp amplifier with a 1 GΩ 8920 Dagan headstage was used in combination with a Nikon Diaphot inverted microscope. Micromanipulators were used to place the electrode onto the cell. Electrodes were pulled to a resistance of […]. […] Peak currents were determined from these traces. DCUKA dissolved in 0.4% DMSO was added directly to the bath following seal formation and the data are expressed as the % of the initial peak current response obtained before drug addition. […]
# [4] = target: T2, polyamine binding site on the NMDA receptor (Rattus norvegicus, UniProt P35439+Q00960); assay: [3H]ifenprodil binding, rat cortical membranes; settings: 5–200 μM DCUKA tested
# T2 construct: from tissue; host or cells: rat cortical membranes
# T2 sequence (Q00960 27-1482, other chains not shown): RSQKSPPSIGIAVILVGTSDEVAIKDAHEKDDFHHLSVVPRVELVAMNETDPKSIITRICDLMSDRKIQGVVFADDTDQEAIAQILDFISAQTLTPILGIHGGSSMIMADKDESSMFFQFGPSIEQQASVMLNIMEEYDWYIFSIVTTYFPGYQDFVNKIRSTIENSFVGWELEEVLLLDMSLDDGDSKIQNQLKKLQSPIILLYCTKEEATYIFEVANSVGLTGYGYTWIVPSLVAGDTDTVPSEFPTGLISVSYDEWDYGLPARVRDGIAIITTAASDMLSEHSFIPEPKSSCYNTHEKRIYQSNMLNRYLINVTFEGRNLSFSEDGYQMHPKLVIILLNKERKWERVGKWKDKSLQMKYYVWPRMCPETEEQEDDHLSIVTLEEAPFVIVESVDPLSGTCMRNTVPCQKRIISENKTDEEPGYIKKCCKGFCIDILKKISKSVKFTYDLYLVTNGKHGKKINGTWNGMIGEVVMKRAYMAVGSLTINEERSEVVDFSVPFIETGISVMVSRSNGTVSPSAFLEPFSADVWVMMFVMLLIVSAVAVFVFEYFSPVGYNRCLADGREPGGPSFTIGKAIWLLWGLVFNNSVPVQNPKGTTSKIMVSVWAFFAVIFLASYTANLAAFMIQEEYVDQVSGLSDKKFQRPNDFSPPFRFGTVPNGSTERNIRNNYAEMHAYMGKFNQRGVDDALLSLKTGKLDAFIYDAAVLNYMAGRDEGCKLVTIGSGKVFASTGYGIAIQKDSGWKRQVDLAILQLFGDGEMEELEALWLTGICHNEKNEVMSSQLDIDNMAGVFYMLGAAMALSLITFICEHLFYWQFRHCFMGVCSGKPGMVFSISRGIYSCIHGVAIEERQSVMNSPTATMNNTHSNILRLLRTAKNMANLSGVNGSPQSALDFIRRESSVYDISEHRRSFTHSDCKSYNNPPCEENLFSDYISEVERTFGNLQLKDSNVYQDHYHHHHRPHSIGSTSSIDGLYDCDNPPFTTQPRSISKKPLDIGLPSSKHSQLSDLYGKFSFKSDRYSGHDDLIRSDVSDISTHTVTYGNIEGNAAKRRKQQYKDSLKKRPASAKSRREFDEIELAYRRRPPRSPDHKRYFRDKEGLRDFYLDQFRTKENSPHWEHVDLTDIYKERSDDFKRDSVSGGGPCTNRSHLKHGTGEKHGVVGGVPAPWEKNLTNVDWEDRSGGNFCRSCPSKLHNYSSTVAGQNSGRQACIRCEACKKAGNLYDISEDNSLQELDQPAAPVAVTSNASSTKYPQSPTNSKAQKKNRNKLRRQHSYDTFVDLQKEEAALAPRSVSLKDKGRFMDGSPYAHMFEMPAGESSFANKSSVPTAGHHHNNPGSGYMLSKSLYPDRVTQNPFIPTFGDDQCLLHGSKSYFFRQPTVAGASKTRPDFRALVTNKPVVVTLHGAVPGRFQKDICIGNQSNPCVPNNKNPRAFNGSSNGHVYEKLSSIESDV
# [5] = tested on: ethanol withdrawal-induced seizures in C57BL/6 mice; assay: Ethanol withdrawal-induced seizures; format: in vivo; settings: single 100 mg/kg i.p. at 0900 hours
# Source text: Male C57BL/6 mice were housed individually. One group of mice were each given a measured amount of liquid diet (BioServ) containing 6.7% ethanol (v/v) and a second, control group of mice each received the same diet with maltodextrin substituted isocalorically for ethanol, as their sole nutrient source for 7 days. A description of such a test can be found in Grant, K. A., et al., “ETHANOL WITHDRAWAL SEIZURES AND THE NMDA RECEPTOR COMPLEX,” Eur. J. Pharmacol., 176 289–296, (1990), the relevant disclosures of which are incorporated herein by reference. Pair-fed mice were given a volume of liquid diet equal to the average volume that the ethanol-fed mice consumed on the previous day. This treatment regimen produces mice that are functionally tolerant to and physically dependent on ethanol. Beginning at 0700 hours on the eighth day of the diet, ethanol-containing diet was replaced with control liquid diet (“withdrawal”).
# Withdrawal seizure severity was assessed by measuring the incidence of handling-induced and spontaneous seizures, which were rated on a rating scale of 0 to 4, modified from a rating scale described by Grant, K. A., et al. in the above cited article. The rating scale was as follows: 0, little or no reaction; 1, slight jerkiness upon handling; 2, excitability increasing in magnitude to a clonic-tonic seizure; 3, spontaneous or instantaneous clonic-tonic seizure; 4, death while in a seizure. The mice were rated for seizure severity at 2, 4, 6, 7, 8, 9, 10, 11, 12 and 24 hours after ethanol withdrawal. Groups of ethanol-fed mice were injected intraperitoneally at 0700, 1100 and 1400 hours with saline, 3, 10 or 17 mg/kg (±)HA-966 (FIG. 5A) or 10, 17 or 30 mg/kg 7-Cl kynurenic acid (FIG. 5B).
# Male C57BL/6 mice were fed ethanol in a liquid diet and the withdrawal seizure severity was assessed as described in EXAMPLE 5. Groups of ethanol-fed mice received a single injection (i.p.) of either vehicle (4% Tween-80, 0.5% carboxymethylcellulose in 0.9% saline) alone or of 100 mg/kg DCUK-OMe suspended in the vehicle administered at 0900 hours. The results are presented in FIG. 6A as the median withdrawal scores of vehicle-injected (N=14) or DCUK-OMe injected (N=6) mice in which * denotes P<0.05, statistically compared to vehicle-injected mice, in the Mann-Whitney U test. FIG. 6B presents the same data as the total withdrawal score, defined as the area enclosed by the curve connecting median withdrawal scores plotted against time as in FIG. 6A. The mean total withdrawal scores±SEM for the vehicle-injected group and DCUK-OMe-injected groups are plotted in which * denotes P<0.05, statistically compared to vehicle-injected mice, by the Student t-test.
# [6] = tested on: Swiss-Webster mice; assay: Ethanol-induced loss of righting reflex; format: in vivo; settings: i.p. 30 minutes before ethanol; DCUK-OMe 100 mg/kg, DZP 1 mg/kg
# Experimental: Swiss-Webster mice were pretreated (i.p.) with 100 mg/kg DCUK-OMe or 1 mg/kg diazepam (DZP) (in 5% Tween-80, 20% Intralipid) 30 minutes before receiving an i.p. administration of ethanol (either 2.3 or 3.2 g/kg, 20% v/v in saline.). The duration of the ethanol-induced loss of righting reflex (defined as the inability of the mouse to right itself when placed on its back in a trough) was measured. […] Since withdrawal signs are many times evident in individuals whose blood ethanol levels are dropping but are far from zero, the DCUK compounds would have an advantage over DZP in that the CNS depressant effects of ethanol would not be accentuated by DCUK compounds if the DCUK compounds are used in an alcohol-intoxicated individual.
SMILES,IC50 [1],IC50 [2],effect on sodium current through VSNaCs [3],IC50 [4],ethanol withdrawal severity [5],duration of ethanol-induced loss of righting reflex (LORR) [6]
"O=C(O)c1cc(NC(=O)N(c2ccccc2)c2ccccc2)c2c(Cl)cc(Cl)cc2n1 [DCUKA, (N,N-diphenyl)-4-ureido-5,7-dichloro-2-carboxy-quinoline]",> 200 µM,> 200 µM,use- and voltage-dependent inhibitor of VSNaCs,> 200 µM,–,–
"COC(=O)c1cc(NC(=O)N(c2ccccc2)c2ccccc2)c2c(Cl)cc(Cl)cc2n1 [DCUK-OMe, (N,N-diphenyl)-4-ureido-5,7-dichloro-2-carboxy-quinoline methyl ester]",–,–,–,–,reduces ethanol withdrawal severity,no significant enhancement
